The target of experiment [1] is Mitogen-activated protein kinase 14 (Homo sapiens, UniProt Q16539). In words: Inhibition of p38alpha (unknown origin).
Experiment [2] addresses T1, Focal adhesion kinase 1 (Homo sapiens, UniProt Q05397).
For experiment [3], the target named is Dual specificity mitogen-activated protein kinase kinase 1 (Homo sapiens, UniProt Q02750). In words: Inhibition of MEK1 (unknown origin).
In experiment [4] the target is Receptor tyrosine-protein kinase erbB-2 (Homo sapiens, UniProt P04626). In words: Inhibition of HER2 (unknown origin).
For experiment [5], the target named is T1, Focal adhesion kinase 1. The source holds these as a separate data set.
For experiment [6], the target named is Proto-oncogene tyrosine-protein kinase Src (Homo sapiens, UniProt P12931). Nature of the experiment: Inhibition of Src (unknown origin).
For the next experiment, the target named is Aurora kinase B (Homo sapiens, UniProt Q96GD4). In words: Inhibition of aurora-B (unknown origin).
Experiment [7] addresses RAC-alpha serine/threonine-protein kinase (Homo sapiens, UniProt P31749). Nature of the experiment: Inhibition of Akt1 (unknown origin).
In experiment [8] the target is Protein-tyrosine kinase 2-beta (Homo sapiens, UniProt Q14289). In words: Inhibition of Pyk2 (unknown origin).

Chain of Proto-oncogene tyrosine-protein kinase Src (P12931 2-536 limits assumed): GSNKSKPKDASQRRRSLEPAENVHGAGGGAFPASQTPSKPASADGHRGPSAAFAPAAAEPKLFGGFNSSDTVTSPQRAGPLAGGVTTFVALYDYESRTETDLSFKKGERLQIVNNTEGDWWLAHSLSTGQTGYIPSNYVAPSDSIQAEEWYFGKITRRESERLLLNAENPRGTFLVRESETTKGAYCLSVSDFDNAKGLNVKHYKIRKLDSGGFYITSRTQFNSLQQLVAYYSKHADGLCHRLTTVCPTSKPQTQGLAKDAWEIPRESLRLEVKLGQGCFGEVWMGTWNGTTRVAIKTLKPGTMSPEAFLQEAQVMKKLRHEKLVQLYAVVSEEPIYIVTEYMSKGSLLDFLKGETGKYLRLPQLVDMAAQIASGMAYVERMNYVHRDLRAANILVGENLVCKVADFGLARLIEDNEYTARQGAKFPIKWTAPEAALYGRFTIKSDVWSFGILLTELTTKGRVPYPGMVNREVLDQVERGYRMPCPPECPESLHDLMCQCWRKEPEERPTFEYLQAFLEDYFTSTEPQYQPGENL
T1 sequence (Q05397 whole entry): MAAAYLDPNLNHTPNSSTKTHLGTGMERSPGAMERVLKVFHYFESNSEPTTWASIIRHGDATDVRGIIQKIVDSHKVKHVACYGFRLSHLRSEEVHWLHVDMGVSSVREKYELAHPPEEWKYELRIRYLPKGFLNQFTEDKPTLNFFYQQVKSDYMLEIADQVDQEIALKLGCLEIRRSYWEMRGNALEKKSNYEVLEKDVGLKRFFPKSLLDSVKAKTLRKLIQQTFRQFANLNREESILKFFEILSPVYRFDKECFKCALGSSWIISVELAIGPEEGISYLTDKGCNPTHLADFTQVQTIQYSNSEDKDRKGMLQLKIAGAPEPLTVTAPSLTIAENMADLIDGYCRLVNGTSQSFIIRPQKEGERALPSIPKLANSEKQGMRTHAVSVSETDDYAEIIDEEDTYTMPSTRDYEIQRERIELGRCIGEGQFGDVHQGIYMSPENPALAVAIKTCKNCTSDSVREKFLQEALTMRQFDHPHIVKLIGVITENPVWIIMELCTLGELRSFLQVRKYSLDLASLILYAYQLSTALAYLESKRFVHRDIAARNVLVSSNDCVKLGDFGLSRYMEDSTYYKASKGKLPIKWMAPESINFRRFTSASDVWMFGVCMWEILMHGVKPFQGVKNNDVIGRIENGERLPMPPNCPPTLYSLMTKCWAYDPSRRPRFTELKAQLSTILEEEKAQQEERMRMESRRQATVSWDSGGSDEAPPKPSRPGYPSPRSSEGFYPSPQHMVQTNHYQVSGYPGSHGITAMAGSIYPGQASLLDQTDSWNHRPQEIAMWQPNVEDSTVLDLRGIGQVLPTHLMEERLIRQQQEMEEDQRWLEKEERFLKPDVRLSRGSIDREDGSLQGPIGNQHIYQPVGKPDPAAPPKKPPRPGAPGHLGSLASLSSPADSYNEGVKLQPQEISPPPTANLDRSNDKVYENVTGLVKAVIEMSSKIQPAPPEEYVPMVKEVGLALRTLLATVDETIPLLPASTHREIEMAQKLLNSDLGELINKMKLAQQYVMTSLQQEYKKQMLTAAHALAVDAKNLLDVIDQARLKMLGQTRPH
Chain of RAC-alpha serine/threonine-protein kinase (P31749 whole entry): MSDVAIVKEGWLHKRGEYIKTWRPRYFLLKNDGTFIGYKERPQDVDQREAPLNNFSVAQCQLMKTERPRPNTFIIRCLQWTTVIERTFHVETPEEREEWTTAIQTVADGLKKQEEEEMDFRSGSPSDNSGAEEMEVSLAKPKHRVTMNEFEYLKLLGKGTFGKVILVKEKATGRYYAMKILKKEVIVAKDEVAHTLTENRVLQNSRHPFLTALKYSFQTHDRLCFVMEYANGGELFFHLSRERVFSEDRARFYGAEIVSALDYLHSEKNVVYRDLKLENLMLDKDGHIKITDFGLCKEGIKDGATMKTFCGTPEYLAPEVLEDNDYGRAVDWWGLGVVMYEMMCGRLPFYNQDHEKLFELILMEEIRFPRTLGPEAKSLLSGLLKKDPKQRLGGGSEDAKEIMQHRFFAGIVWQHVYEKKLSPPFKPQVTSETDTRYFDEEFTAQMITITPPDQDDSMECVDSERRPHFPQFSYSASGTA
Chain of Dual specificity mitogen-activated protein kinase kinase 1 (Q02750 whole entry): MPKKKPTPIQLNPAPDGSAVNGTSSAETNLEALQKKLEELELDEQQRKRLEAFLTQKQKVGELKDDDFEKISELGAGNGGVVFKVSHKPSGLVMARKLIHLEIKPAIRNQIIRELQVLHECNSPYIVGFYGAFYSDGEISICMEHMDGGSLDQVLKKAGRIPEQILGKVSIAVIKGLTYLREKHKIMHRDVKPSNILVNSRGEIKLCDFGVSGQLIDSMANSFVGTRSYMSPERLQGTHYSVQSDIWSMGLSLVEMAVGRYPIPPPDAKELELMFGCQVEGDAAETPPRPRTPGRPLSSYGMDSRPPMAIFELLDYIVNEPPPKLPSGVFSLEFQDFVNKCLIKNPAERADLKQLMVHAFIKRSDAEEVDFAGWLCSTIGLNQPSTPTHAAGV
Chain of Receptor tyrosine-protein kinase erbB-2 (P04626 whole entry): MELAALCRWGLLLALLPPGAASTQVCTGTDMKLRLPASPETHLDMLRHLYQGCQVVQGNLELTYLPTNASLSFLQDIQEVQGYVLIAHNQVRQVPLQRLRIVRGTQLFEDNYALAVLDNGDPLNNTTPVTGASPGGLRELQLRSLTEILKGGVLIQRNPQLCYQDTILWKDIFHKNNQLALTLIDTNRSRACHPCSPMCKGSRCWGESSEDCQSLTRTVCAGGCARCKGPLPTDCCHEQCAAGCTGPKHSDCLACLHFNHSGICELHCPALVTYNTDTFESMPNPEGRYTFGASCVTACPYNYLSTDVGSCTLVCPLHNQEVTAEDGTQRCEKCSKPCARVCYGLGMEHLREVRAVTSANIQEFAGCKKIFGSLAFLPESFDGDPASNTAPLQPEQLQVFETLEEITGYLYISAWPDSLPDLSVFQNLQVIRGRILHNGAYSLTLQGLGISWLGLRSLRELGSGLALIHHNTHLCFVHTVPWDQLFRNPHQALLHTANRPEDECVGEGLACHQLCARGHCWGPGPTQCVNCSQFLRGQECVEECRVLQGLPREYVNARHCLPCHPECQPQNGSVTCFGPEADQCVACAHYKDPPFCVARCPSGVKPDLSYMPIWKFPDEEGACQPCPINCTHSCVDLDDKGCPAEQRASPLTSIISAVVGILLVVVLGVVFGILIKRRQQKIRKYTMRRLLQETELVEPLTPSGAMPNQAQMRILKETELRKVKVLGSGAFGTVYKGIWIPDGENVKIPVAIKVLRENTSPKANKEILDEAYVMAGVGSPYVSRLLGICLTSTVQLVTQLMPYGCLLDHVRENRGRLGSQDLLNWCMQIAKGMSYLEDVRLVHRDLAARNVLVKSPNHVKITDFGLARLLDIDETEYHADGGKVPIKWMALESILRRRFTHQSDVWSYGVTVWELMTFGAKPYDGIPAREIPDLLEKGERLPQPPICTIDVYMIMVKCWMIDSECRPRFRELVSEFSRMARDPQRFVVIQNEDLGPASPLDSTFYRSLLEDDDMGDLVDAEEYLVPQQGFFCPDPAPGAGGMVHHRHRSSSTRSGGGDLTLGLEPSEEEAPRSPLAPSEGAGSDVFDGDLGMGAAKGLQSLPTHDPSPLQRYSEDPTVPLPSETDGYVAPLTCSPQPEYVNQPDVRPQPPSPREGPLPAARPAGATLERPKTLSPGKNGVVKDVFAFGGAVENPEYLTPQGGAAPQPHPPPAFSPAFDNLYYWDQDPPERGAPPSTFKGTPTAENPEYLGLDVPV
Chain of Aurora kinase B (Q96GD4 whole entry): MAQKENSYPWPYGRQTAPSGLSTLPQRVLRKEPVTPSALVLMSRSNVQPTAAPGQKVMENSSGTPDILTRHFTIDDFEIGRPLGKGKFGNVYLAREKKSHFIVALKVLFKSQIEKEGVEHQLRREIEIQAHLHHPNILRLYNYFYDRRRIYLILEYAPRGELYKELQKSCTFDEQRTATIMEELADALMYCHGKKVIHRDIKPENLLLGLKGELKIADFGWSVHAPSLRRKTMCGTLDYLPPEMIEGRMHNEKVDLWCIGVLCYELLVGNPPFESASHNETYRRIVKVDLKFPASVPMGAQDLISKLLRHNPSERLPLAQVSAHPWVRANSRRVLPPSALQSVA
Chain of Mitogen-activated protein kinase 14 (Q16539 whole entry): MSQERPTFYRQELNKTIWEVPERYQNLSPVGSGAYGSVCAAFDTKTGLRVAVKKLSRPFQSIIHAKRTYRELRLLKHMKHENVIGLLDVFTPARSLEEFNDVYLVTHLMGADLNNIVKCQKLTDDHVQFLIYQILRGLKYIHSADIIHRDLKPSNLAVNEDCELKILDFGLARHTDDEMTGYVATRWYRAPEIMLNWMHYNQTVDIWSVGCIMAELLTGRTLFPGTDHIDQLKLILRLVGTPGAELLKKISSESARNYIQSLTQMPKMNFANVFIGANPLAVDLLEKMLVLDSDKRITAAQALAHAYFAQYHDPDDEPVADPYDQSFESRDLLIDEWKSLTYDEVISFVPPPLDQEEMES

For `CCc1ccc(-c2ccc3c(c2)-c2c(cnn2C)S(=O)(=O)N3C)cc1`, the IC50 (as a rule, the concentration that gives 50% inhibition) in [1] was more than 10 µM; against Focal adhesion kinase 1 [2], 0.42 µM; in experiment [3] it was more than 10 µM; in experiment [4] it was more than 10 µM; against Focal adhesion kinase 1 [5] it was 0.077 µM; in [6], more than 10 µM. Also, the IC50 (against Aurora kinase B; in experiment [7]; in [8]) was more than 10 µM in each case.
The compound `CCc1ccc(-c2ccc3c(c2)-c2c(cnn2CC)S(=O)(=O)N3C)cc1` gave an IC50 at Focal adhesion kinase 1 [5] of 2.1 µM.
As for `CCc1ccc(-c2ccc3c(c2)-c2nn(C)cc2S(=O)(=O)N3C)cc1`, at Focal adhesion kinase 1 [5], the IC50 was more than 30 µM.
Regarding `CN1c2ccc(C(=O)Nc3ccc(F)cc3)cc2-c2c(cnn2C)S1(=O)=O`, the IC50 on Focal adhesion kinase 1 [5] is more than 30 µM.
Regarding `CN1c2ccc(NCc3ccc(C(C)(C)C)cc3)cc2-c2c(cnn2C)S1(=O)=O`, the IC50 (in [1]; in experiment [3]; in experiment [4]; in [6]; at Aurora kinase B; in experiment [7]) was more than 10 µM in each case. This compound returned an IC50 in experiment [8] of more than 10 µM.
`CCc1ccc(-c2ccc3c(c2)-c2n[nH]cc2S(=O)(=O)N3C)cc1`: the IC50 in [1] was more than 10 µM; in experiment [3], 8.6 µM; in experiment [4], more than 10 µM; in experiment [6], more than 10 µM; at Aurora kinase B it was 5.1 µM; in [7], more than 10 µM.

The values above are taken from ChEMBL document CHEMBL2331389, “Structure-based discovery of cellular-active allosteric inhibitors of FAK” (Bioorg Med Chem Lett, 2013).
